Active and inactive are the calls of the source.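 The calls were made as follows: active = a tumor-causing dose value with its tumor site reported for any sex and species group of a rodent or other animal cancer study; inconclusive = only studies judged inadequate by the national testing program; inactive = tested in at least one study, none positive.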
Assay: DSSTox (CPDBAS) Carcinogenic Potency Database Summary SingleCellCall Results
Conditions: animal chronic carcinogenicity bioassays, CPDB summary call
In short: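 Literature-derived summary: each substance receives an overall carcinogenic/non-carcinogenic category drawn from long-term bioassays in rats, mice, hamsters, dogs or primates, using the most positive sex-species experiment and minimal evidence criteria.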

Row | Structure (SMILES) | outcome
1 | CCCCCCCN | inactive
2 | OCC1CO1 (centres undefined) | active
3 | O=C(O)CC[N+](=O)[O-] | inactive; active
4 | NC(=O)c1cccnc1 | inactive
5 | Cc1ncc([N+](=O)[O-])n1CCO | active
6 | CCN(CC(F)(F)F)N=O | active
7 | CCOC(=O)[C@H](CCc1ccccc1)N[C@@H](C)C(=O)N1Cc2ccccc2C[C@H]1C(=O)O | inactive; active
8 | NCCCCCCCCCCC(=O)O | active
9 | ClC(Cl)Br | active
10 | Nc1ccc(/C=C/c2ccc(N)cc2S(=O)(=O)O)c(S(=O)(=O)O)c1 | inactive; active
11 | CC1=C[C@H]2O[C@@H]3[C@H](O)C[C@@](C)(C34CO4)[C@@]2(CO)[C@H](O)C1=O (some centres undefined) | inactive; active
12 | CC1(C)S[C@@H]2[C@H](NC(=O)COc3ccccc3)C(=O)N2[C@H]1C(=O)O | inactive
13 | ClC(Cl)=C(c1ccc(Cl)cc1)c1ccc(Cl)cc1 | active
14 | CC(C)N=[N+]([O-])C(C)C | active
15 | CN(C)C(=O)Cl | active
16 | Cc1cc(N=Nc2c(O)ccc3ccccc23)c(S(=O)(=O)O)cc1Cl | active; inactive
17 | OC[C@H]1O[C@H](O[C@]2(CCl)O[C@H](CCl)[C@@H](O)[C@@H]2O)[C@H](O)[C@@H](O)[C@H]1Cl | inactive
18 | c1ccc2c(c1)Nc1ccccc1S2 | inactive
19 | O=[N+]([O-])c1ccc(Oc2ccc(Cl)cc2Cl)cc1 | active
20 | CCOc1ccc(NC(C)=O)cc1[N+](=O)[O-] | active
21 | Cc1cc(O)c(C(C)(C)C)cc1Sc1cc(C(C)(C)C)c(O)cc1C | inactive
22 | CN(N=O)c1ccncc1 | inactive; active
23 | Cc1cc(Cc2ccc(N)c(C)c2)ccc1N | active
24 | CC1=C(C)C(=O)C(C(CCCCCC(=O)O)c2ccccc2)=C(C)C1=O (centres undefined) | inactive
25 | Cn1c(N)nc2ncc(-c3ccccc3)cc21 | active

Row | Structure (SMILES) | outcome
26 | COC1=CC(=O)C[C@@H](C)[C@]12Oc1c(Cl)c(OC)cc(OC)c1C2=O | active
27 | CN(CCCC(=O)c1cccnc1)N=O | active
28 | CC#N | inactive
29 | CC(C)=CCl | active
30 | [O]=[Mo](=[O])=[O] | active
31 | O=P(OC(CCl)CCl)(OC(CCl)CCl)OC(CCl)CCl | active
32 | CCN(N=O)C(N)=O | active; inactive
33 | O=CC1CO1 (centres undefined) | inactive
34 | C/C=C1/C[C@@H](C)[C@@](C)(O)C(=O)OC/C2=C/CN(C)CC[C@@H](OC1=O)C2=O | active
35 | CCCCCCCCCc1ccc(OCCOCCO)cc1 | inactive; active
36 | CNc1ncnc2c1ncn2[C@@H]1O[C@H](CO)[C@@H](O)[C@H]1O | inactive; active
37 | CCCCCC | active
38 | CN(C)/N=N/c1nc[nH]c1C(N)=O | active
39 | O=[N+]([O-])c1ccc(-c2nc(N(CCO)CCO)c3ccccc3n2)s1 | active; inactive
40 | Nc1ccc2nc3ccccn3c2n1 | active; inactive
41 | C=CCOC(=O)c1ccccc1C(=O)OCC=C | inactive
42 | CN=C(N)N | inactive; active
43 | COc1c2occc2cc2ccc(=O)oc12 | active
44 | CC(O)CN(N=O)C(=O)NCCCl (centres undefined) | active
45 | Cc1cc(O)c(C)c2c1OC(C)(CCCC(C)CCCC(C)CCCC(C)C)CC2 (centres undefined) | active
46 | OC[C@H]1O[C@@](CO)(O[C@H]2O[C@H](CO)[C@@H](O)[C@H](O)[C@H]2O)[C@@H](O)[C@@H]1O | inactive
47 | NC(=S)Nc1ccccc1 | inactive
48 | CN=C(NC#N)NCCSCc1nc[nH]c1C | inactive; active
49 | CCS(=O)(=O)c1ccc(S(N)(=O)=O)c2ccccc12 | active
50 | CO[C@@]12[C@H](COC(N)=O)C3=C(C(=O)C(C)=C(N)C3=O)N1C[C@@H]1N[C@@H]12 | active

Row | Structure (SMILES) | outcome
51 | CN(C)N | active
52 | CCOC(=O)CBr | inactive
53 | Cc1cnc2ccc3c(nc(N)n3C)c2n1 | active
54 | CCCCC1C(=O)N(c2ccccc2)N(c2ccccc2)C1=O | active; inactive
55 | Cc1nnc2n1-c1sc(CCc3ccc(CC(C)C)cc3)cc1C(c1ccccc1Cl)=NC2C (centres undefined) | inactive
56 | CCOP(=O)(CC1CO1)OCC (centres undefined) | inactive
57 | ClC1C2(Cl)C3C4C5OC5C5C4C1(Cl)C(Cl)(C53)C2(Cl)Cl (centres undefined) | inactive
58 | C=COC(N)=O | active; inactive
59 | COC(=O)C1=CCCN(N=O)C1 | inactive
60 | FC(F)(Cl)Cl | inactive
61 | O=C1CCCO1 | inactive
62 | CN1[C@@H]2CC(OC(=O)[C@@H](CO)c3ccccc3)C[C@H]1[C@@H]1O[C@@H]12 (some centres undefined) | inactive
63 | CCOP(=S)(OCC)Oc1ccc([N+](=O)[O-])cc1 | inactive; active
64 | NNCCO | active; inactive
65 | N#CN=C(N)N | inactive; active
66 | COP(=O)(OC)OC=C(Cl)Cl | active
67 | CNNCc1ccc(C(=O)NC(C)C)cc1 | active
68 | COc1cc(N=Nc2ccccc2)ccc1N | active; inactive
69 | Nc1cc(S(=O)(=O)[O-])cc2cc(S(=O)(=O)[O-])c(N=Nc3ccc(-c4ccc(N=Nc5c(S(=O)(=O)[O-])cc6cc(S(=O)(=O)[O-])cc(N)c6c5O)c(O)c4)cc3O)c(O)c12.[Cu].[Cu].[Na+].[Na+].[Na+].[Na+] | active; inactive
70 | O=[N+]([O-])c1ccc(Nc2ccc(Nc3ccccc3)c(S(=O)(=O)O)c2)c([N+](=O)[O-])c1 | active; inactive
71 | COC(=O)C1=C(C)NC(C)=C(C(=O)OCC(C)(C)CN(C)Cc2ccccc2)C1c1cc([N+](=O)[O-])ccc1F (centres undefined) | inactive
72 | C[C@@H]1C/C=C/C=C/C=C/C=C/[C@H](O[C@@H]2O[C@H](C)[C@@H](O)[C@H](N)[C@@H]2O)C[C@@H]2O[C@](O)(C[C@@H](O)C[C@H]3O[C@@H]3/C=C/C(=O)O1)C[C@H](O)[C@H]2C(=O)O | inactive
73 | CCN=[N+]([O-])CC | active
74 | O=C(O)c1cc(N=Nc2ccc(S(=O)(=O)Nc3ccccn3)cc2)ccc1O | active
75 | Oc1ccccc1O | active

Row | Structure (SMILES) | outcome
76 | COc1ccc([C@@H]2CC(=O)c3c(O)cc(O[C@@H]4O[C@H](CO[C@@H]5O[C@@H](C)[C@H](O)[C@@H](O)[C@H]5O)[C@@H](O)[C@H](O)[C@H]4O)cc3O2)cc1OC | inactive
77 | IC(I)I | inactive
78 | Cc1ccccc1[N+](=O)[O-] | active
79 | CC(=O)OC[C@]12C[C@H](OC(=O)CC(C)C)C(C)=C[C@H]1O[C@@H]1[C@H](O)[C@@H](OC(C)=O)[C@@]2(C)C12CO2 (some centres undefined) | active; inactive
80 | Oc1ccc2ccccc2c1N=Nc1ccccc1 | active
81 | COC(=O)NN | inactive; active
82 | Nc1c(Cl)cc(Cl)cc1Cl | active
83 | ClCC(Cl)(Cl)Cl | active; inactive
84 | C=C1C(CCl)(CCl)C2(Cl)C(Cl)C(Cl)C1(Cl)C2(Cl)Cl (centres undefined) | active; inactive
85 | O[C@@H]([C@H](O)[C@@H](O)CBr)[C@@H](O)CBr | active
86 | CCC(Br)(CC)C(=O)NC(N)=O | inactive
87 | CC(O)CN(CC(C)O)CC(C)O (centres undefined) | inactive; active
88 | ClCOCC(COCCl)OCCl | active
89 | CC1CN(N=O)CC(C)O1 (centres undefined) | active
90 | CCCCC(CC)COC(=O)COc1ccc(Cl)cc1Cl (centres undefined) | inactive
91 | Cc1cccc(Nc2cc(Cl)nc(SCC(=O)NCCO)n2)c1C | active; inactive
92 | O=C/C(Cl)=C(/Cl)C(=O)O | inactive
93 | c1ccc(-c2ccccc2)cc1 | inactive; active
94 | CC(Cc1ccccc1)NN (centres undefined) | inactive
95 | Nc1nc(N)c2nc(-c3ccccc3)c(N)nc2n1 | active; inactive
96 | CC(=O)O[C@H]1CC[C@@]2(C)C(=CC[C@@H]3[C@@H]2CC[C@]2(C)C(=O)CC[C@@H]32)C1 | active
97 | NNC(=O)c1ccccc1 | active
98 | Nc1ccc(-c2ccc(N)c(Cl)c2)cc1Cl | active
99 | CC(C(=O)O)c1cccc(C(=O)c2ccccc2)c1 (centres undefined) | inactive
100 | Nc1ccc(S(=O)(=O)c2ccc(N)cc2)cc1 | active

Row | Structure (SMILES) | outcome
101 | O=NN(CC(F)(F)F)CC(F)(F)F | inactive
102 | S=C=NCCCCCCc1ccccc1 | inactive
103 | Clc1nc(Cl)nc(Nc2ccccc2Cl)n1 | inactive
104 | O=NN1CCC[C@H]1C(=O)O | inactive
105 | CCOP(=S)(OCC)Oc1ccc2c(C)c(Cl)c(=O)oc2c1 | inactive
106 | CCCN(CCC)N=O | active
107 | O=c1[nH]cc(F)c(=O)[nH]1 | active; inactive
108 | O=Nc1ccc(Nc2ccccc2)cc1 | active; inactive
109 | CCCCCCc1ccc(O)cc1O | inactive
110 | CCCCC(CC)CO (centres undefined) | active; inactive
111 | CC(=O)OCc1ccccc1 | active; inactive
112 | C=CCN(CC(C)=O)N=O | active
113 | CC(=O)Nc1nc(-c2ccc([N+](=O)[O-])o2)cs1 | active
114 | Nc1ccc(N=Nc2ccccc2)c(N)n1 | active
115 | CNC(=O)Oc1cccc2c1OC(C)(C)C2 | inactive
116 | NC(=O)NNc1ccccc1 | active; inactive
117 | Cc1cccc(N=Nc2ccc(N(C)C)cc2)c1 | active
118 | Cc1ccc(N=Nc2c(O)c(S(=O)(=O)O)cc3ccc(S(=O)(=O)O)cc23)c(C)c1 | active; inactive
119 | Cc1ccccc1OCC(O)CNCCn1cc(C)c(=O)[nH]c1=O (centres undefined) | inactive
120 | C=COC(C)=O | active
121 | FC(Cl)(Cl)Cl | inactive; active
122 | C[C@]12C=CC(=O)C=C1CC[C@@H]1[C@@H]2[C@@H](O)C[C@@]2(C)[C@H]1CC[C@]2(O)C(=O)COC(=O)CCCc1ccc(N(CCCl)CCCl)cc1 | active
123 | O=C1OC(C(O)CO)C(O)=C1O (centres undefined) | inactive
124 | C[C@H]1CCCC(=O)CCC/C=C/c2cc(O)cc(O)c2C(=O)O1 | active
